How the values were obtained:
[1] = test system: Human immunodeficiency virus 1; test: Antiviral activity against HIV-1 infected in human NCK45 cells assessed as inhibition of infection after 48 hrs by dual-reporter gene assay; format: functional, organism-based; conditions: Human immunodeficiency virus 1, NCK45, 48 h
[2] = Cytotoxicity against human NCK45 cells at 1 uM; format: cell-based; conditions: nck45, 1 µM
[3] = Cytotoxicity against human NCK45 cells at 10 uM; format: cell-based; conditions: nck45, 10 µM

SMILES | EC50 [1] [nM] | Activity [2] | Activity [3]
CCC(=O)Nc1cc(CNc2c(C#N)c(C)nn2-c2ccc3ncccc3c2)cc(Cl)c1O | > 10000 | – | –
CCC(=O)Nc1cc(CNc2c(C#N)c(C)nn2-c2cccc(-c3ccncc3)c2)cc(Cl)c1O | > 1000 | – | Toxic
CCC(=O)Nc1cc(CNc2c(C#N)c(C)nn2-c2cccc([N+](=O)[O-])c2)cc(Cl)c1O | > 1000 | – | Toxic
CCC(=O)Nc1cc(CNc2c(C#N)c(C)nn2-c2cccc(NC(C)=O)c2)cc(Cl)c1O | > 10000 | – | –
CCC(=O)Nc1cc(CNc2c(C#N)c(C)nn2-c2ccc(C)cc2)cc(Cl)c1O | > 1000 | – | Toxic
CCC(=O)Nc1cc(CNc2c(C#N)c(C)nn2-c2ccccc2C)cc(Cl)c1O | > 1000 | – | Toxic
CCC(=O)Nc1cc(CNc2c(C#N)c(C)nn2-c2cc(Cl)cc(Cl)c2)cc(Cl)c1O | > 1000 | – | Toxic
CCC(=O)Nc1cc(CNc2c(C#N)c(C)nn2-c2ccc3ccccc3c2)cc(Cl)c1O | > 1000 | – | Toxic
CCC(=O)Nc1cc(CNc2c(C#N)c(C)nn2-c2cccc3ccccc23)cc(Cl)c1O | > 1000 | – | Toxic
CCC(=O)Nc1cc(CNc2c(C#N)c(C)nn2-c2ccccn2)cc(Cl)c1O | > 100 | Toxic | –
CCC(=O)Nc1cc(CNc2c(C#N)c(C)nn2-c2cccnc2)cc(Cl)c1O | > 10000 | – | –
CCC(=O)Nc1cc(CNc2c(C#N)c(C)nn2-c2nccc3ccccc23)cc(Cl)c1O | > 1000 | – | Toxic
CCC(=O)Nc1cc(CNc2c(C#N)c(C)nn2-c2ccccc2)cc(C)c1O | > 10000 | – | –
CC(=O)Nc1cc(CNc2c(C#N)c(C)nn2-c2ccccc2)cc(Cl)c1O | > 1000 | – | Toxic
CCCCCC(=O)Nc1cc(CNc2c(C#N)c(C)nn2-c2ccccc2)cc(Cl)c1O | > 10000 | – | –
CCNC(=O)c1cc(CNc2c(C#N)c(C)nn2-c2ccccc2)cc(Cl)c1O | > 1000 | – | Toxic
CCC(=O)Nc1cc(CNc2c(C#N)cnn2-c2ccccc2)cc(Cl)c1O | > 1000 | – | Toxic
CCC(=O)Nc1cc(CNc2cc(C)nn2-c2ccccc2)cc(Cl)c1O | > 10000 | – | –
CCC(=O)Nc1cc(CNc2c(C#N)c(C)nn2C)cc(Cl)c1O | > 10000 | – | –
CCC(=O)Nc1cc(CNc2c(C#N)c(C)nn2C2CCCCC2)cc(Cl)c1O | > 1000 | – | Toxic
CCC(=O)Nc1cc(CNc2c(C#N)c(CC)nn2-c2ccccc2)cc(Cl)c1O | > 10000 | – | –
CCC(=O)Nc1cc(CNc2c(C#N)c(-c3ccccc3)nn2-c2ccccc2)cc(Cl)c1O | > 10000 | – | –
CCC(=O)Nc1cc(CNc2c(C(=O)OC)c(C)nn2-c2ccccc2)cc(Cl)c1O | > 1000 | – | Toxic
CCC(=O)Nc1cc(CNc2c(C#N)c(C)nn2-c2cccc(OC)c2)cc(Cl)c1O | > 10000 | – | –
CCC(=O)Nc1cc(CNc2c(C#N)c(C)nn2-c2cccc(Br)c2)cc(Cl)c1O | > 100 | Toxic | –
CCC(=O)Nc1cc(Cl)cc(CNc2c(C#N)c(C)nn2-c2ccccc2)c1 | > 10000 | – | –
CCC(=O)Nc1cc(CNc2c(C#N)c(C)nn2-c2ccccc2)cc(Cl)c1OC | > 10000 | – | –
CCC(=O)Nc1cc(CNc2c(C#N)c(C)nn2-c2ccccc2)ccc1O | > 10000 | – | –

Continued, in another order:

EC50 [1] [nM] | SMILES | Activity [2] | Activity [3]
> 100 | CCC(=O)Nc1cc(CNc2c(C#N)c(C)nn2-c2cccc(-c3ccccc3OC)c2)cc(Cl)c1O | Toxic | –
> 100 | CCC(=O)Nc1cc(CNc2c(C#N)c(C)nn2-c2cccc(-c3ccccc3C)c2)cc(Cl)c1O | Toxic | –
250 | CCC(=O)Nc1cc(CNc2c(C#N)c(C)nn2-c2cccc(-c3ccccc3Cl)c2)cc(Cl)c1O | – | Toxic
> 100 | CCC(=O)Nc1cc(CNc2c(C#N)c(C)nn2-c2cccc(-c3cccc(OC)c3)c2)cc(Cl)c1O | Toxic | –
58 | CCC(=O)Nc1cc(CNc2c(C#N)c(C)nn2-c2cccc(-c3cccc(C)c3)c2)cc(Cl)c1O | Toxic | –
> 100 | CCC(=O)Nc1cc(CNc2c(C#N)c(C)nn2-c2cccc(-c3cccc(Cl)c3)c2)cc(Cl)c1O | Toxic | –
> 100 | CCC(=O)Nc1cc(CNc2c(C#N)c(C)nn2-c2cccc(-c3ccc(OC)cc3)c2)cc(Cl)c1O | Toxic | –
97 | CCC(=O)Nc1cc(CNc2c(C#N)c(C)nn2-c2cccc(-c3ccc(C)cc3)c2)cc(Cl)c1O | Toxic | –
> 100 | CCC(=O)Nc1cc(CNc2c(C#N)c(C)nn2-c2cccc(-c3ccc(Cl)cc3)c2)cc(Cl)c1O | Toxic | –
47 | CCC(=O)Nc1cc(CNc2c(C#N)c(C)nn2-c2cccc(-c3ccc(Cl)c(Cl)c3)c2)cc(Cl)c1O | Toxic | –
> 100 | CCC(=O)Nc1cc(CNc2c(C#N)c(C)nn2-c2cccc(-c3ccc4ccccc4c3)c2)cc(Cl)c1O | Toxic | –
> 100 | CCC(=O)Nc1cc(CNc2c(C#N)c(C)nn2-c2cccc(-c3cnc4ccccc4c3)c2)cc(Cl)c1O | Toxic | –
> 100 | CCC(=O)Nc1cc(CNc2c(C#N)c(C)nn2-c2cccc(C(F)(F)F)c2)cc(Cl)c1O | Toxic | –
130 | CCC(=O)Nc1cc(CNc2c(C#N)c(C)nn2-c2cccc(-c3ccccc3)c2)cc(Cl)c1O | Toxic | –
3300 | CCCC(=O)Nc1cc(CNc2c(C#N)c(C)nn2-c2ccccc2)cc(Cl)c1O | – | –
370 | CCC(=O)Nc1cc(CNc2c(C#N)c(C)nn2-c2cccc(C)c2)cc(Cl)c1O | – | Toxic
330 | CCC(=O)Nc1cc(CNc2c(C#N)c(C)nn2-c2cccc(F)c2)cc(Cl)c1O | – | Toxic
320 | CCC(=O)Nc1cc(/N=N/c2c(C#N)c(C)nn2-c2ccccc2)cc(Cl)c1O | – | –
440 | CCC(=O)Nc1cc(/C=C/c2c(C#N)c(C)nn2-c2ccccc2)cc(Cl)c1O | – | –
360 | CCC(=O)Nc1cc(CNc2c(C#N)c(C)nn2-c2ccccc2)cc(Cl)c1O | – | –

From ChEMBL document CHEMBL2407031, “Structure-activity relationship study of phenylpyrazole derivatives as a novel class of anti-HIV agents” (Bioorg Med Chem Lett, 2013)
